Assay results published in US20200024278A1, “COMPOSITION COMPRISING ANTIBIOTIC COMPOUND AND AN HETEROCYCLIC COMPOUND AND THEIR USE IN PREVENTING OR TREATING BACTERIAL INFECTIONS” (MUTABILIS, priority 2016, published 2020).

Columns and labels:
Experiment in all cases: MIC, broth microdilution (CLSI), substance alone or ATB combined with compound at 4 or 8 μg/mL
Format in all cases: cell-based, A. baumannii
ABA UFR155 = tested on: ABA UFR155
Method: (§1) Compounds of the present invention were assessed against genotyped bacterial strains alone or in combination with an antibacterial. In the assays, MICs of said compounds or combination of antibiotics with fixed concentrations of said compounds (4 or 8 μg/mL) were determined by the broth microdilution method according to the Clinical Laboratory Standards Institute (CLSI-M7-A7). Briefly, compounds alone according to the invention were prepared in DMSO and spotted (2 μL each) on sterile polystyrene plates (Corning, 3788). Combinations of compounds and antibiotics dilutions were prepared in DMSO and spotted (1 μL each) on sterile polystyrene plates (Corning, 3788). Log phase bacterial suspensions were adjusted to a final density of 5·10^5 CFU/mL in cation-adjusted Mueller-Hinton broth (ca-MHB; Becton-Dickinson and Company) and added to each well (98 μL). Assays including Fosfomycin were supplemented with 25 μg/ml of Glucose-6-phosphate. Microplates were incubated for 16-20 h at 35° C. in ambient air. The MIC of the compounds was defined as the lowest concentration of said compounds that prevented bacterial growth as read by visual inspection. The MIC of ATB at each compound concentration was defined as the lowest concentration of ATB that prevented bacterial growth as read by visual inspection.

ABA UFR158 = tested on: ABA UFR158
Method: as §1

ABA 107292 = tested on: ABA 107292
Method: as §1

ABA UFR153 = tested on: ABA UFR153
Method: as §1

ABA UFR156 = tested on: ABA UFR156
Method: as §1

ABA UFR152 = tested on: ABA UFR152
Method: as §1

ABA UFR161 = tested on: ABA UFR161
Method: as §1

CC1(C)[C@H](C(=O)O)N2C(=O)C[C@H]2S1(=O)=O [SUL]
0.5 µg/mL: MIC ATB combined with Example 9 @4 μg/ml (ABA UFR153; with Example 9 @4 μg/ml)
1 µg/mL: MIC ATB combined with Example 3 @8 μg/ml (ABA UFR155; with Example 3 @8 μg/ml) | MIC ATB combined with Example 1 @8 μg/ml (ABA UFR153; with Example 1 @8 μg/ml) | MIC ATB combined with Example 10 @8 μg/ml (ABA UFR156; with Example 10 @8 μg/ml) | MIC ATB combined with Example 3 @8 μg/ml (ABA UFR152; with Example 3 @8 μg/ml) | MIC ATB combined with Example 10 @8 μg/ml (ABA UFR152; with Example 10 @8 μg/ml) | MIC ATB combined with Example 11 @8 μg/ml (ABA UFR152; with Example 11 @8 μg/ml) | MIC ATB combined with Example 12 @8 μg/ml (ABA UFR152; with Example 12 @8 μg/ml)
128 µg/mL: MIC ATB alone (ABA UFR161; antibiotic alone)
32 µg/mL: MIC ATB combined with Example 15 @4 μg/ml (ABA UFR158; with Example 15 @4 μg/ml) | MIC ATB combined with Example 11 @8 μg/ml (ABA 107292; with Example 11 @8 μg/ml) | MIC ATB combined with Example 1 @8 μg/ml (ABA UFR161; with Example 1 @8 μg/ml)
8 µg/mL: MIC ATB combined with Example 9 @4 μg/ml (ABA UFR155; with Example 9 @4 μg/ml) | MIC ATB combined with Example 15 @4 μg/ml (ABA UFR155; with Example 15 @4 μg/ml) | MIC ATB combined with Example 6 @8 μg/ml (ABA 107292; with Example 6 @8 μg/ml) | MIC ATB combined with Example 9 @4 μg/ml (ABA 107292; with Example 9 @4 μg/ml) | MIC ATB combined with Example 11 @8 μg/ml (ABA UFR156; with Example 11 @8 μg/ml) | MIC ATB combined with Example 15 @4 μg/ml (ABA UFR156; with Example 15 @4 μg/ml)
2 µg/mL: MIC ATB combined with Example 6 @8 μg/ml (ABA UFR155; with Example 6 @8 μg/ml) | MIC ATB combined with Example 10 @8 μg/ml (ABA UFR155; with Example 10 @8 μg/ml) | MIC ATB combined with Example 12 @8 μg/ml (ABA UFR155; with Example 12 @8 μg/ml) | MIC ATB combined with Example 3 @8 μg/ml (ABA 107292; with Example 3 @8 μg/ml) | MIC ATB combined with Example 12 @8 μg/ml (ABA 107292; with Example 12 @8 μg/ml) | MIC ATB combined with Example 3 @8 μg/ml (ABA UFR156; with Example 3 @8 μg/ml) | MIC ATB combined with Example 6 @8 μg/ml (ABA UFR152; with Example 6 @8 μg/ml) | MIC ATB combined with Example 9 @4 μg/ml (ABA UFR152; with Example 9 @4 μg/ml) | MIC ATB combined with Example 15 @4 μg/ml (ABA UFR152; with Example 15 @4 μg/ml)
64 µg/mL: MIC ATB alone (ABA UFR158; antibiotic alone) | MIC ATB alone (ABA 107292; antibiotic alone) | MIC ATB alone (ABA UFR156; antibiotic alone)
<=0.25 μg/mL: MIC ATB combined with Example 3 @8 μg/ml (ABA UFR153; with Example 3 @8 μg/ml) | MIC ATB combined with Example 6 @8 μg/ml (ABA UFR153; with Example 6 @8 μg/ml) | MIC ATB combined with Example 10 @8 μg/ml (ABA UFR153; with Example 10 @8 μg/ml) | MIC ATB combined with Example 11 @8 μg/ml (ABA UFR153; with Example 11 @8 μg/ml) | MIC ATB combined with Example 12 @8 μg/ml (ABA UFR153; with Example 12 @8 μg/ml) | MIC ATB combined with Example 15 @4 μg/ml (ABA UFR153; with Example 15 @4 μg/ml)
4 µg/mL: MIC ATB combined with Example 1 @8 μg/ml (ABA UFR155; with Example 1 @8 μg/ml) | MIC ATB combined with Example 11 @8 μg/ml (ABA UFR155; with Example 11 @8 μg/ml) | MIC ATB combined with Example 1 @8 μg/ml (ABA 107292; with Example 1 @8 μg/ml) | MIC ATB combined with Example 10 @8 μg/ml (ABA 107292; with Example 10 @8 μg/ml) | MIC ATB combined with Example 15 @4 μg/ml (ABA 107292; with Example 15 @4 μg/ml) | MIC ATB alone (ABA UFR153; antibiotic alone) | MIC ATB combined with Example 6 @8 μg/ml (ABA UFR156; with Example 6 @8 μg/ml) | MIC ATB combined with Example 12 @8 μg/ml (ABA UFR156; with Example 12 @8 μg/ml) | MIC ATB alone (ABA UFR152; antibiotic alone) | MIC ATB combined with Example 1 @8 μg/ml (ABA UFR152; with Example 1 @8 μg/ml)
<0.25 µg/mL: MIC ATB combined with Example 6 @8 μg/ml (ABA UFR158; with Example 6 @8 μg/ml)
16 µg/mL: MIC ATB alone (ABA UFR155; antibiotic alone) | MIC ATB combined with Example 1 @8 μg/ml (ABA UFR158; with Example 1 @8 μg/ml) | MIC ATB combined with Example 3 @8 μg/ml (ABA UFR158; with Example 3 @8 μg/ml) | MIC ATB combined with Example 9 @4 μg/ml (ABA UFR158; with Example 9 @4 μg/ml) | MIC ATB combined with Example 10 @8 μg/ml (ABA UFR158; with Example 10 @8 μg/ml) | MIC ATB combined with Example 11 @8 μg/ml (ABA UFR158; with Example 11 @8 μg/ml) | MIC ATB combined with Example 12 @8 μg/ml (ABA UFR158; with Example 12 @8 μg/ml) | MIC ATB combined with Example 1 @8 μg/ml (ABA UFR156; with Example 1 @8 μg/ml) | MIC ATB combined with Example 9 @4 μg/ml (ABA UFR156; with Example 9 @4 μg/ml) | MIC ATB combined with Example 3 @8 μg/ml (ABA UFR161; with Example 3 @8 μg/ml) | MIC ATB combined with Example 6 @8 μg/ml (ABA UFR161; with Example 6 @8 μg/ml)
